Where two headings read alike, the source gives them in different places.
How the values were obtained:
[1] = test system: metastatic melanoma cancer cell line RPMI7951; test: cell survival MTT assay on metastatic melanoma cancer cell line RPMI7951; type: cell-based; conditions: Homo sapiens, RPMI-7951, read-out: IC50±SD RPMI7951
Method: (§1) The anticancer‐activity of DHA and ART hybrids 7‐β, 12‐β, 13‐α, 14‐α, 15‐α, and 16‐α, and of DHA and ART dimers 17‐α,α, 18‐α,α, 19‐β,β, 20‐α,α, 21‐α,α and 22‐α,α, was evaluated by the cell survival MTT assay on metastatic melanoma cancer cell line RPMI7951. Artemisinin 1, DHA 2, ART 3, hybrids 5–7, dimer 8, and commercially available drug paclitaxel (Taxol) were used as reference. In addition, data were compared with experiments performed on normal human primary fibroblast cell line (C3PV). Table 1 reports the IC50 (half‐maximal inhibitory concentration) and CC50 (half‐maximal cytotoxic concentration) values of the tested compounds.
(§2) The primary human fibroblast C3PV cell line was treated according to Botta et al.[27] Metastatic melanoma cell line (RPMI7951) was grown in Eagle's Minimum Essential Medium (EMEM) containing 15 % and 10 % FBS respectively, in addition to penicillin (100 U/ml) and streptomycin (1 mg/ml). The cell lines were maintained at 37 °C in a humidified atmosphere (95 %) in the presence of 5.0 % CO2. Prostate cancer (PC3) and breast cancer (MDA‐MB‐231) cell lines were raised in DMEM/F12 and RMPI1640 medium, respectively. To the medium was added 10 % FBS, 1 mM Glutammine and 40 μg/ml of Gentamicin. All cell lines were mantained at 37 °C in a humidified atmosphere (95 %) in the presence of 5.0 of CO2.
To study the effect of artemisinin and its derivatives on cell viability C3PV, RPMI7951, PC3, MDA‐MB‐231 cell lines were seeded in 96‐well plates (6000 cells/well in 100 μl medium) and incubated overnight to allow cell adherence. After, the medium was replaced with fresh medium containing the appropriate dose of compound. Artemisinin and its derivatives were used in a range of […] for 24 h. The analyses of cell viability were done at the end of treatment. […]
(§3) The CC50 and IC50 values were determined by non‐linear regression using the program graphpad prism 6.
(§4) Cell viability was evaluated using MTT cell proliferation assay. Briefly, after incubation for 3 h at 37 °C with MTT (0.5 mg/ml) the supernatant was replaced with 100 μl of a lysis solution containing 10 % SDS, 0.6 % Acetic acid in DMSO to dissolve the formazan crystals. Optical density measurements were performed with a scanning spectrophotometer DTX880 Multimode Detector (Beckman Coulter) using a 630 nm (background) and a 570 nm filter.

[2] = MTT cell viability (cytotoxicity) on normal human primary fibroblast C3PV; type: cell-based
Method: as §1, §2
(§5) To study the effect of artemisinin and its derivatives on cell viability C3PV, RPMI7951, PC3, MDA‐MB‐231 cell lines were seeded in 96‐well plates (6000 cells/well in 100 μl medium) and incubated overnight to allow cell adherence. After, the medium was replaced with fresh medium containing the appropriate dose of compound. […] The analyses of cell viability were done at the end of treatment. The assays were performed in quadruplicate for both treatments.
as §3, §4

[3] = as above; type: cell-based; conditions: C3PV normal primary fibroblast cells, 24 h treatment, triplicate, read-out: CC50±SD C3PV
[4] = test system: human prostate (PC3) cancer cell line; test: MTT cell viability on prostate cancer PC3 cell line; type: cell-based; conditions: PC-3, triplicate, read-out: IC50±SD PC3
Method: (§6) The effect of dimers 20–22‐α,α was further evaluated against other tumour types, such as human prostate and breast cancers in PC3 and MDA‐MB‐231 cell lines, respectively (Table 2).
as §2, §5, §4

[5] = test system: human breast (MDA‐MB‐231) cancer cell line; test: MTT cell viability on breast cancer MDA‐MB‐231 cell line; type: cell-based; conditions: triplicate, read-out: IC50±SD MDA‐MB‐231
Method: as §6, §2, §5, §4

[6] = test system: metastatic melanoma cancer cell line RPMI7951; parameters: method as in PMID 31956771; conditions: cited from earlier work
[7] = test system: normal human primary fibroblast cell line (C3PV); parameters: method as in PMID 31956771; conditions: cytotoxicity data from ref. 12; read-out: CC50±SD C3PV; cited from earlier work
[8] = stability in assay medium by HPLC; type: physicochemical; conditions: 24 and 48 hours, 25 °C, pH=7, in comparison with artesunic acid 3
[9] = MTT, 24 h treatment, triplicate
[10] = antimelanoma data from ref. 12, read-out: IC50±SD RPMI7951

SMILES | IC50 [1, 9] [nM] | CC50 at 24 h [2] [nM] | further results
CC1CCC2C(C)C(Oc3ccc(CCO)cc3)OC3OC4(C)CCC1C32OO4 (stereo not drawn) [7‐β] | 200 ± 10 | 1140 ± 450 | –
CC1CCC2C(C)C(OCCc3ccc(O)cc3)OC3OC4(C)CCC1C32OO4 (stereo not drawn) [12‐β] | 400 ± 30 | 38200 ± 2560 | –
C[C@H]1[C@H](OC(=O)CCC(=O)NCCc2ccc(O)cc2)O[C@@H]2O[C@@]3(C)CC[C@H]4[C@H](C)CC[C@@H]1[C@@]24OO3 [13‐α] | 1700 ± 30 | 3390 ± 50 | –
COC(=O)C(Cc1ccc(O)cc1)NC(=O)CCC(=O)O[C@@H]1O[C@@H]2O[C@@]3(C)CC[C@H]4[C@H](C)CC[C@@H]([C@H]1C)[C@@]24OO3 (stereo partly drawn) [14‐α] | 1300 ± 70 | 6380 ± 1500 | –
C[C@H]1[C@H](OC(=O)CCC(=O)Oc2ccc(CO)cc2)O[C@@H]2O[C@@]3(C)CC[C@H]4[C@H](C)CC[C@@H]1[C@@]24OO3 [15‐α] | 2500 ± 50 | 55200 ± 7330 | –
C[C@H]1[C@H](OC(=O)c2ccccc2C(=O)O)O[C@@H]2O[C@@]3(C)CC[C@H]4[C@H](C)CC[C@@H]1[C@@]24OO3 [16‐α] | 4600 ± 30 | 8140 ± 850 | –
C[C@H]1[C@H](OC(=O)CCC(=O)O[C@@H]2O[C@@H]3O[C@@]4(C)CC[C@H]5[C@H](C)CC[C@@H]([C@H]2C)[C@@]35OO4)O[C@@H]2O[C@@]3(C)CC[C@H]4[C@H](C)CC[C@@H]1[C@@]24OO3 [17‐α,α] | 70 ± 10 | – | CC50 at 24 h [3]: 250 ± 30 nM
C[C@H]1[C@H](OC(=O)c2ccccc2C(=O)O[C@@H]2O[C@@H]3O[C@@]4(C)CC[C@H]5[C@H](C)CC[C@@H]([C@H]2C)[C@@]35OO4)O[C@@H]2O[C@@]3(C)CC[C@H]4[C@H](C)CC[C@@H]1[C@@]24OO3 [18‐α,α] | 10800 ± 1600 | 8000 ± 100 | –
C[C@H]1[C@@H](OCCCCO[C@H]2O[C@@H]3O[C@@]4(C)CC[C@H]5[C@H](C)CC[C@@H]([C@H]2C)[C@@]35OO4)O[C@@H]2O[C@@]3(C)CC[C@H]4[C@H](C)CC[C@@H]1[C@@]24OO3 [19‐β,β] | 3600 ± 950 | 5700 ± 790 | –
CC1CCC2C(C)C(OC(=O)CCC(=O)NCCc3ccc(OC(=O)CCC(=O)OC4OC5OC6(C)CCC7C(C)CCC(C4C)C57OO6)cc3)OC3OC4(C)CCC1C32OO4 (stereo not drawn) [20‐α,α] | 2450 ± 50 | 228000 ± 1500 | IC50 ([1]; in absence of DFO): 2450 ± 50 nM; IC50 [4]: 2300 ± 350 nM; IC50 [5]: 1300 ± 850 nM
COC(=O)C(Cc1ccc(OC(=O)CCC(=O)OC2OC3OC4(C)CCC5C(C)CCC(C2C)C35OO4)cc1)NC(=O)CCC(=O)OC1OC2OC3(C)CCC4C(C)CCC(C1C)C24OO3 (stereo not drawn) [21‐α,α] | 1760 ± 30 | > 300000 | IC50 ([1]; in absence of DFO): 1760 ± 30 nM; IC50 [4]: 3040 ± 340 nM; IC50 [5]: 3080 ± 850 nM
C[C@@H]1CC[C@H]2[C@@H](C)C(=O)O[C@@H]3O[C@@]4(C)CC[C@@H]1[C@]32OO4 [Compound 1, artemisinin] | 3620 ± 990 | – | CC50 at 24 h [3]: > 300000 nM
C[C@H]1[C@@H](O)O[C@@H]2O[C@@]3(C)CC[C@H]4[C@H](C)CC[C@@H]1[C@@]24OO3 [Compound 2, dihydroartemisinin] | 910 ± 450 | 680 ± 190 | –
C[C@H]1[C@H](OC(=O)CCC(=O)O)O[C@@H]2O[C@@]3(C)CC[C@H]4[C@H](C)CC[C@@H]1[C@@]24OO3 [Compound 3, artesunic acid] | 1080 ± 560 | – | CC50 at 24 h [3]: 1680 ± 440 nM
C[C@@H]1CC[C@H]2[C@@H](C)C(OCCc3ccc(O)cc3)O[C@@H]3O[C@@]4(C)CC[C@@H]1[C@]32OO4 (stereo partly drawn) [Compound 5] | – | – | IC50 [6, 10]: 330 ± 80 nM; CC50 [7]: 1760 ± 310 nM
C[C@@H]1CC[C@H]2[C@@H](C)C(OC(=O)CCC(=O)OCCc3ccc(O)cc3)O[C@@H]3O[C@@]4(C)CC[C@@H]1[C@]32OO4 (stereo partly drawn) [Compound 6] | – | – | IC50 [6, 10]: 8340 ± 3060 nM; CC50 [7]: > 300000 nM
C[C@@H]1CC[C@H]2[C@@H](C)C(OC(=O)CCC(=O)Oc3ccc(CCO)cc3)O[C@@H]3O[C@@]4(C)CC[C@@H]1[C@]32OO4 (stereo partly drawn) [Compound 7] | – | – | IC50 [6, 10]: 90 ± 30 nM; CC50 [7]: 132000 ± 12600 nM
CC1CCC2C(C)C(OC(=O)CCC(=O)OCCc3ccc(OC(=O)CCC(=O)OC4OC5OC6(C)CCC7C(C)CCC(C4C)C57OO6)cc3)OC3OC4(C)CCC1C32OO4 (stereo not drawn) [Compound 8] | – | – | IC50 [6, 10]: 490 ± 50 nM; IC50 ([6]; introduction, earlier library, read-out: IC50 against RPMI‐7951 cell line): 1370 ± 130 nM; CC50 [7]: 6100 ± 3740 nM
CC1CCC2C(C)C(OC(=O)CCC(=O)OCc3ccc(OC(=O)CCC(=O)OC4OC5OC6(C)CCC7C(C)CCC(C4C)C57OO6)cc3)OC3OC4(C)CCC1C32OO4 (stereo not drawn) [Compound 22‐α,α] | 50 ± 20 | > 300000 | IC50 ([1]; in absence of DFO): 50 ± 20 nM; IC50 [4]: 3100 ± 190 nM; IC50 [5]: 2400 ± 950 nM; stability after exposition to assay medium (HPLC) [8]: good stability
CC(=O)O[C@H]1C(=O)[C@@]2(C)[C@H]([C@H](OC(=O)c3ccccc3)[C@]3(O)C[C@H](OC(=O)[C@H](O)[C@@H](NC(=O)c4ccccc4)c4ccccc4)C(C)=C1C3(C)C)[C@]1(OC(C)=O)CO[C@@H]1C[C@@H]2O [Paclitaxel, paclitaxel, reference compound] | 13 | 78900 ± 790 | –

Source: PMC8360007, “Stereoselective Access to Antimelanoma Agents by Hybridization and Dimerization of Dihydroartemisinin and Artesunic acid” (Chemmedchem, 2021)
